Values quoted from earlier work in patent US11931445B2, “Composition comprising baicalin” (L'OREAL, priority 2016, dated 2024).

What was measured:
[1] = pH more than 6.5

Baicalin
solubility in an aqueous medium: very slightly soluble
chemical stability [1]: chemically unstable
